Test results as given in US8614327B2 (Vertex Pharmaceuticals Incorporated, priority 2004, dated 2013).

Biological target: T1, ΔF508-CFTR (Homo sapiens, UniProt P13569, DEL508-508)
T1 construct: expressed in transfected cells
Experiment: Membrane potential optical (FRET/VIPR) assay, identification of potentiator compounds
Format: cell-based
Settings: Table 3, assay not given; for % Activity: relative efficacy
Method in brief: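 NIH3T3 mouse fibroblasts stably expressing ΔF508-CFTR, temperature-corrected 24 h at 27° C., read on VIPR by FRET between CC2-DMPE and DiSBAC2(3). Potentiators identified in a double-addition format, first adding chloride-free (gluconate) medium with or without compound.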

T1 sequence (P13569 with tags, fused parts or gaps DEL508-508): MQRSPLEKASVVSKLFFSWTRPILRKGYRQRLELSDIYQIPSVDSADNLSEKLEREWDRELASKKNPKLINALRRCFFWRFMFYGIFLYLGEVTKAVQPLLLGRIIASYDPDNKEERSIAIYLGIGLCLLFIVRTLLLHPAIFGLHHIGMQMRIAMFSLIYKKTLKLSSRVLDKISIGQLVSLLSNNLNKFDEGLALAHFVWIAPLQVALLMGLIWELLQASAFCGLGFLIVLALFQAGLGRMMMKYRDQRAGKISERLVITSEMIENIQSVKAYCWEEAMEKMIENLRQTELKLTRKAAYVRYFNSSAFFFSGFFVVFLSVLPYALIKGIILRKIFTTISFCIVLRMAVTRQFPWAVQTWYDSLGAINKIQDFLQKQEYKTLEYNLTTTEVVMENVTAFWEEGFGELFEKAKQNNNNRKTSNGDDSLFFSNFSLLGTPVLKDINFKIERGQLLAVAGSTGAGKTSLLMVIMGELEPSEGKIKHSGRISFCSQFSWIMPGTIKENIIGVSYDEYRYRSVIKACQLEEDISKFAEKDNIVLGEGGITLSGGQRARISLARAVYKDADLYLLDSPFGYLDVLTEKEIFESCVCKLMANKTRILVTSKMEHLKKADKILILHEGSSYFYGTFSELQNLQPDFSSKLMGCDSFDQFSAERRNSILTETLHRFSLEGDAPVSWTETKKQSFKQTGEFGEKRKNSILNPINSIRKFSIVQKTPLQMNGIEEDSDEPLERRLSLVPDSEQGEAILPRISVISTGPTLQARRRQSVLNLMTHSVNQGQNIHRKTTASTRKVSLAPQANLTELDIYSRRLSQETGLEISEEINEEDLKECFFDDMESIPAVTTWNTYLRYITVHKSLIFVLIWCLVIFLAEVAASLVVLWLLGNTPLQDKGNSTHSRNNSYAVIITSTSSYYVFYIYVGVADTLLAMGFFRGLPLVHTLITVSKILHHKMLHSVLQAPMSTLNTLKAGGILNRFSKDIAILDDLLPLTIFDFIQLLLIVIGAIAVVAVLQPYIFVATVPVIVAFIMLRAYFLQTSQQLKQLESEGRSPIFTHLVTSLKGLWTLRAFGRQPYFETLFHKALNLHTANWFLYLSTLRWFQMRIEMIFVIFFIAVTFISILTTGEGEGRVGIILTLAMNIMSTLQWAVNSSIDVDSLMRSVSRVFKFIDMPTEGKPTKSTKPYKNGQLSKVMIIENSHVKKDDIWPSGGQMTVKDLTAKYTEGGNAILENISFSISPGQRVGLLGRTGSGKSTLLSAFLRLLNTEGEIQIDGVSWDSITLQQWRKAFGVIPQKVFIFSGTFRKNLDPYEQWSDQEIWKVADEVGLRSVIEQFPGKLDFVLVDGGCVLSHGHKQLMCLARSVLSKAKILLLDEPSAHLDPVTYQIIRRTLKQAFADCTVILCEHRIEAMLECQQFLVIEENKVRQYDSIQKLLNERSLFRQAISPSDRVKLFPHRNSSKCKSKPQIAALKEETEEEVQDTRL

| EC50 | % Activity | Compound |
| --- | --- | --- |
| 10 to 25 µM | ++ (between 25% to 100%) | CCc1cccc(NC(=O)c2c[nH]c3ccccc3c2=O)n1 [Compound 125, N-(6-ethyl-2-pyridyl)-4-oxo-1H-quinoline-3-carboxamide] |
| < 10 µM | ++ (between 25% to 100%) | Cc1ccc(NC(=O)c2c[nH]c3ccccc3c2=O)c(F)c1 [Compound 289, N-(2-fluoro-4-methyl-phenyl)-4-oxo-1H-quinoline-3-carboxamide] |
| < 10 µM | +++ (>100%) | COc1cc2c(=O)c(C(=O)Nc3cc(O)c(C(C)(C)C)cc3C(C)(C)C)c[nH]c2cc1F [Compound 709, 7-fluoro-N-(5-hydroxy-2,4-ditert-butyl-phenyl)-6-methoxy-4-oxo-1H-quinoline-3-carboxamide] |
| < 10 µM | +++ (>100%) | CC(C)(C)c1ccc(O)cc1NC(=O)c1c[nH]c2ccccc2c1=O [Compound 662, N-(5-hydroxy-2-tert-butyl-phenyl)-4-oxo-1H-quinoline-3-carboxamide] |
| < 10 µM | ++ (between 25% to 100%) | CC1(C)CCN(c2ccc(NC(=O)c3c[nH]c4ccccc4c3=O)c(C(F)(F)F)c2)C1 [Compound 536, N-[4-(3,3-dimethylpyrrolidin-1-yl)-2-(trifluoromethyl)phenyl]-4-oxo-1H-quinoline-3-carboxamide] |
| < 10 µM | ++ (between 25% to 100%) | O=C(Nc1ccc(N2CCCC2)cc1C(F)(F)F)c1c[nH]c2ccc(F)cc2c1=O [Compound 562, 6-fluoro-4-oxo-N-[4-pyrrolidin-1-yl-2-(trifluoromethyl)phenyl]-1H-quinoline-3-carboxamide] |
| < 10 µM | ++ (between 25% to 100%) | CC(=O)c1ccc(-c2ccccc2NC(=O)c2c[nH]c3ccccc3c2=O)s1 [Compound 174, N-[2-(5-acetyl-2-thienyl)phenyl]-4-oxo-1H-quinoline-3-carboxamide] |
